Where “and” joins values, the source holds several entries; their conditions need not be identical. Equal entries are not always repeated.
How the values were obtained:
[1] = tested on: male Delottococcus aberiae; assay: Field tests on the attraction response: baited adhesive traps in a citrus plot; assay type: in vivo
Description: The response in male Delottococcus aberiae to (4,5,5-trimethyl-3-methylenecyclopent-1-en-1-yl)methyl acetate was evaluated in two field tests performed in a citrus var. Marisol plot, located in Sagunto (Valencia), during the months of May-June 2018. In a first test, 3 blocks of 2 devices were installed, said devices being: (A) a device with carrier, without attractant substance and with a trap consisting of a white sheet with adhesive, (B) a device with carrier with bait containing 500 μg of (4,5,5-trimethyl-3-methylenecyclopent-1-en-1-yl)methyl acetate and a trap consisting of a white sheet with adhesive (95×150 mm) (in each block, the devices were located at a distance of 20 m from one another, whereas the distance between blocks was at least 30 m. The carriers loaded with (4,5,5-trimethyl-3-methylenecyclopent-1-en-1-yl)methyl acetate were septum-type carriers and were inserted in the centre of the trap.
The captures obtained in each of the traps were checked each week and the captured individuals were taken to the laboratory to be identified and counted. Traps in the same block were rotated each week.
The number of males captured per trap and day was compared by means of an analysis of variance (ANOVA; LSD test for comparison of the means, P<0.05), subject to transformation (In(x+1)) of the data to homogenise the variance.
In a second test, this was performed in the same way as test 1, but device B included bait containing 100 μg of (4,5,5-trimethyl-3-methylenecyclopent-1-en-1-yl)methyl acetate.

[2] = Analysis of the attractant content of the septum carriers after 20 days in the field (emission); assay type: physicochemical
Description: Therefore, the mean emission for those 20 days is 9.45±2.13 μg/day. […] Therefore, the mean emission for those 20 days is 0.55±0.42 μg/day.

[3] = tested on: male Delottococcus aberiae; assay: Choice test in glass Petri dish: response of males to the compound vs. pentane control, laboratory conditions; assay type: in vivo; settings: 10 μl on 1 cm^2 filter paper vs. pentane negative control; 10 min; χ2 test P<0.05; FIG. 2
Description: The response of male Delottococcus aberiae to (4,5,5-trimethyl-3-methylenecyclopent-1-en-1-yl)methyl acetate was evaluated in the Centro de Ecologia Quimica Agricola (UPV, Valencia) by means of a test on the activity in a glass Petri dish. The tests were performed with light and under the same breeding conditions, at 23±2° C. and 60-70% relative humidity.
For these tests, males from breeding were also used, separated on Petri dishes right when the cottony cocoon begins to form. After pupating and finally emerging from the cocoon, the insects are observed under a binocular scope to confirm their state before being selected for the test.
The method used is described below: for each test, there were placed at opposite ends of the Petri dish a sample of (4,5,5-trimethyl-3-methylenecyclopent-1-en-1-yl)methyl acetate and a negative control (solvent pentane without activity), arranged on 1 cm^2 filter paper in an amount of 10 μl. Immediately, groups of males are carefully deposited on the test plate with the aid of a very fine brush. Therefore, the behaviour of the individuals with respect to the sources of stimulation is recorded for 10 min. Once the test has ended, the insects are discarded, such that each insect is exposed to olfactory stimuli only once. The obtained data were analysed by means of a Chi-squared test (χ2 test, P<0.05).

[4] = first field test, tested load 300 μg per septa

Final content of the substance after 20 days [2, 4]: 109 µg
Mean emission for those 20 days [2, 4]: 9.45 ± 2.13 µg/day
Final content of the substance after 20 days ([2]; second field test, bait 100 μg): 91 µg
Mean emission for those 20 days ([2]; second field test, bait 100 μg): 0.55 ± 0.42 µg/day
Compound: C=C1C=C(COC(C)=O)C(C)(C)C1C (racemic) [Pheromone, (4,5,5-trimethyl-3-methylenecyclopent-1-en-1-yl)methyl acetate]
Male captures per trap and day ([1]; first field test, Table 1, bait 500 μg (300 μg per septa), single traps): 61.0 and 52.7 and 58.0
Average field captures per trap and day ([1]; first field test, bait 500 μg (300 μg elsewhere in the source), controls 0.11, P<0.001): 57.22
Attraction power of baited devices vs. traps without attractant ([1]; first field test, septum bait, white adhesive trap, ANOVA, LSD P<0.05, FIG. 3): significantly higher attraction power
Average field captures per trap and day ([1]; second field test, bait 100 μg, controls 0.06, P<0.036): 9.14
Response of male Delottococcus aberiae in the test of choice [3]: significant attractant response
